Data set [1] deals with MMP13 (Homo sapiens, UniProt P45452). Briefly: off-target proteinase inhibition MMP13. It is filed as biochemical. To be noted: read-out: Relative enzyme activity MMP13.
Data set [2] has as its target T1, ADAM10 (Homo sapiens, UniProt O14672).
T1 sequence (O14672 214-748): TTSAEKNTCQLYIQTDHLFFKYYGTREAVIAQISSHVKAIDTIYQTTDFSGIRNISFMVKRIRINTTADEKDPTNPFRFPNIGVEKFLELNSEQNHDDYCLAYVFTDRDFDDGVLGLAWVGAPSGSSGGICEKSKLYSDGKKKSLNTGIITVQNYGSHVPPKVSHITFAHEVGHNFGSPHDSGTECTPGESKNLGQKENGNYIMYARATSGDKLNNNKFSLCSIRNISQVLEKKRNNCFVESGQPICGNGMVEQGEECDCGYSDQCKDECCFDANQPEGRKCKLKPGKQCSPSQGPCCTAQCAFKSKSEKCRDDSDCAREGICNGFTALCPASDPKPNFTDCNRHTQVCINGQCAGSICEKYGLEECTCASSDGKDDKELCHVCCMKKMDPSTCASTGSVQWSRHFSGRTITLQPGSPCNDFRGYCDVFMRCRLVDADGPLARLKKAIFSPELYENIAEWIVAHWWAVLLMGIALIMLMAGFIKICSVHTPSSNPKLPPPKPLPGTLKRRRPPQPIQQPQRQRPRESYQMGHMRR
Briefly: off-target proteinase inhibition ADAM10. It is filed as biochemical. To be noted: read-out: Relative enzyme activity ADAM10.

For data set [3], the target named is T2, recombinant human meprin β (Homo sapiens, UniProt Q16820).
T2 sequence (Q16820 62-701): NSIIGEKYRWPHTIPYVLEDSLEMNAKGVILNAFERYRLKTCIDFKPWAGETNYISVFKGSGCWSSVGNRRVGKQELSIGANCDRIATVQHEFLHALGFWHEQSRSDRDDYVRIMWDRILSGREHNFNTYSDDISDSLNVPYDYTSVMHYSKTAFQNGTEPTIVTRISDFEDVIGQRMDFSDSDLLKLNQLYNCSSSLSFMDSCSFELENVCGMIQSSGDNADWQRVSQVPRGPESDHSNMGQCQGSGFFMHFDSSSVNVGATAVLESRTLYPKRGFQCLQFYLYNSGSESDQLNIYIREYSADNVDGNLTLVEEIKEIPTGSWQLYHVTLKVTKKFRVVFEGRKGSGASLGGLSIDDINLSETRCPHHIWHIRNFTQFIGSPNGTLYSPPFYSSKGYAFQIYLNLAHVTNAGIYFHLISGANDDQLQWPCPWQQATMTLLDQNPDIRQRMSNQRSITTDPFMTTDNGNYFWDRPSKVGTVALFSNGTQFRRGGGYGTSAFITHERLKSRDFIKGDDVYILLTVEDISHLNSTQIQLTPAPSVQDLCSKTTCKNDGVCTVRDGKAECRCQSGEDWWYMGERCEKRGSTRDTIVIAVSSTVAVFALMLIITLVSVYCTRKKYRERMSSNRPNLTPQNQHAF
The experiment in a line: meprin β inhibition, quenched fluorogenic peptide substrate assay. It is filed as biochemical.

For data set [4], the target named is MMP9 (Homo sapiens, UniProt P14780). Briefly: off-target proteinase inhibition MMP9. It is filed as biochemical. The following applies: read-out: Relative enzyme activity MMP9.
MMP9, sequence (P14780 107-707 limits assumed): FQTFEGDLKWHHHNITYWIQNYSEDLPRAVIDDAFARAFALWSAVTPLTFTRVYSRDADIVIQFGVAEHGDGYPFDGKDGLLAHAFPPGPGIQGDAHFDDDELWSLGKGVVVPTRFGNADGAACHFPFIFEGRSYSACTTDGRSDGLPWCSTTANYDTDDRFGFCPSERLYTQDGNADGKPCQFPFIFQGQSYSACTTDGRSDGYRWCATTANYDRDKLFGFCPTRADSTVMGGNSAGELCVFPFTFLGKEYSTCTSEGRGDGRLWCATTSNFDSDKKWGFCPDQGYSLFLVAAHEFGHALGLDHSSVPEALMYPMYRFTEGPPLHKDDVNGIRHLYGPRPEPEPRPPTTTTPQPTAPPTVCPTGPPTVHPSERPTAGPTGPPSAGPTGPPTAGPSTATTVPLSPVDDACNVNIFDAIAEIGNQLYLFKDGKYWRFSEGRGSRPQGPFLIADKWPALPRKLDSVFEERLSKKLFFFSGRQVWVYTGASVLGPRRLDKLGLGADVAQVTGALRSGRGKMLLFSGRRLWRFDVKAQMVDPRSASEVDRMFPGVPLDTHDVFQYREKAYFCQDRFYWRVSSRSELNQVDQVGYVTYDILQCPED
Data set [5] concerns the target ADAM17 (Homo sapiens, UniProt P78536). Briefly: off-target proteinase inhibition ADAM17. Format: biochemical. The following applies: read-out: Relative enzyme activity ADAM17.
Data set [6] deals with T3, recombinant human meprin α (Homo sapiens, UniProt Q16819).
T3 sequence (Q16819 66-746): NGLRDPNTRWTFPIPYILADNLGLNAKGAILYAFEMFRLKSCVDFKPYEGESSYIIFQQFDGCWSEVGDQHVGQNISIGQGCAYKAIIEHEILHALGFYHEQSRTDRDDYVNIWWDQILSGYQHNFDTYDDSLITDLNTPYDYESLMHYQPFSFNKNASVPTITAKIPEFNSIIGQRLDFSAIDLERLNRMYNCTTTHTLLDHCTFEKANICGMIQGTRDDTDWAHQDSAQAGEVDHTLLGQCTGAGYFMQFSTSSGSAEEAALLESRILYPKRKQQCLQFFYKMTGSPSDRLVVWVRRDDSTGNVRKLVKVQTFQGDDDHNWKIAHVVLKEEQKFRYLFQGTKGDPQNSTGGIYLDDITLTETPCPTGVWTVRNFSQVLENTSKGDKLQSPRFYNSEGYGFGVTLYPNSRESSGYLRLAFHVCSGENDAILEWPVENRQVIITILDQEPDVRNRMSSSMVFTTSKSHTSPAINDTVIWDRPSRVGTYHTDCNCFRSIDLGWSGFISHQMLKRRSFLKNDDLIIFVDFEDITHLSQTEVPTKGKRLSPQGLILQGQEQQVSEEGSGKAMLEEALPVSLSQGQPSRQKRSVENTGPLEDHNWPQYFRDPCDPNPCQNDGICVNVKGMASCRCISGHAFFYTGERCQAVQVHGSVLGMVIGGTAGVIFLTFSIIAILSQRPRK
The experiment in a line: meprin α inhibition, quenched fluorogenic peptide substrate assay. Format: biochemical. The following applies: for SF: selectivity factor (K i app meprin β/K i app meprin α): meprin α over meprin β.

Data set [7] deals with T4, MMP2 (Homo sapiens, UniProt P08253).
T4 sequence (P08253 110-660): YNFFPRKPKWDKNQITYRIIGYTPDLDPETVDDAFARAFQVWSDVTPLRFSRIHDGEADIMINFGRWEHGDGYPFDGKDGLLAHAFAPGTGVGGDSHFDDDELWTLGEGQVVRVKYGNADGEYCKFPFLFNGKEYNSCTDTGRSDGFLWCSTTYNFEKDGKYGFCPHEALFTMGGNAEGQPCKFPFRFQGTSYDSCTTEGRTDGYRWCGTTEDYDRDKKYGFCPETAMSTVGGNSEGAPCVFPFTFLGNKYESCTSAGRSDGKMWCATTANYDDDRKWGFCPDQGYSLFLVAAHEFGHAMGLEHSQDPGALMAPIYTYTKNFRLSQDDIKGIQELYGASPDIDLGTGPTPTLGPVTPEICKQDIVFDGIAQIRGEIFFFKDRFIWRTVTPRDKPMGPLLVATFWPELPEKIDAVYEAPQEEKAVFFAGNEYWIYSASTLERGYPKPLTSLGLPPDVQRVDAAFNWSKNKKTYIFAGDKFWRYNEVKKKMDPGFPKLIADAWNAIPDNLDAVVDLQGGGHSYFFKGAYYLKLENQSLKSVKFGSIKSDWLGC
Briefly: off-target proteinase inhibition MMP2. The following applies: read-out: Relative enzyme activity MMP2. It is filed as biochemical.

A short description of data set [8]: cell-viability assay. Format: cell-based. The following applies: human, SH-SY5Y cells.
A short description of data set [9]: cell-viability assay. Format: cell-based. To be noted: human, Hep-G2 cells.
For data set [10], the target named is T5, mouse ovastacin (Mus musculus, UniProt Q6HA09).
T5 sequence (Q6HA09 86-435 limits assumed): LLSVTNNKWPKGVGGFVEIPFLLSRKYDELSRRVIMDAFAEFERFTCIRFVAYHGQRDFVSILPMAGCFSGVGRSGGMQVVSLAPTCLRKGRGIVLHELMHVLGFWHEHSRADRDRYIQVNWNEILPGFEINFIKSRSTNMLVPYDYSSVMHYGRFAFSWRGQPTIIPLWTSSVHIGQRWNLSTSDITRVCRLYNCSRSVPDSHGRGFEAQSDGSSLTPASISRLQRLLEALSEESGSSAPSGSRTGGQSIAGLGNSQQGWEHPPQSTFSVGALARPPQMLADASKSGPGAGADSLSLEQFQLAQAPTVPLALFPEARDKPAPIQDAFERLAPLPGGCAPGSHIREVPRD
The experiment in a line: ovastacin inhibition, fluorogenic enzyme activity assay.

The source of these data is paper PMC8048867 (Chemmedchem, 2020).

ADAM17, sequence (P78536 215-824): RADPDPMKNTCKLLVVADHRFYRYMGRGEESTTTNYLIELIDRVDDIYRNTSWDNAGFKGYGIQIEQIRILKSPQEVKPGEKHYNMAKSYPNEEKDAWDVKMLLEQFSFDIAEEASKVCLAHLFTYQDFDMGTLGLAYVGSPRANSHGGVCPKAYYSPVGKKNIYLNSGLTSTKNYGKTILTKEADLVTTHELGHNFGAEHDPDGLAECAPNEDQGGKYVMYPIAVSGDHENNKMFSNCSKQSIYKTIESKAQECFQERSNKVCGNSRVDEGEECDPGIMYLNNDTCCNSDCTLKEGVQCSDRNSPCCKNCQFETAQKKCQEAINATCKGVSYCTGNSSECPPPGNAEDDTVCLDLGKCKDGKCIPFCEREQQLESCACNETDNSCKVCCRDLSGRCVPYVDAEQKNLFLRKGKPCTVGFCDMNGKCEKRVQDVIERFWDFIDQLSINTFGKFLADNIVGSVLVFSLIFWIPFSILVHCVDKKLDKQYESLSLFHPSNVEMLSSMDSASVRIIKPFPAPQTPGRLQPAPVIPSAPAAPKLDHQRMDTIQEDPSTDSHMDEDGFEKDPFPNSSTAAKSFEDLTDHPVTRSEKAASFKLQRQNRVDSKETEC

On to `O=C(Cn1c(-c2ccccc2)ccc1-c1ccccc1)NO` [2 a, 2‐(2,5‐Diphenylpyrrol‐1‐yl)ethanehydroxamic acid], for which the remaining activity at 10 µM in data set [1] came to 79%; in data set [2], 82%; in data set [4], 92%; in data set [5], 82%; in data set [7] it was 83%. In addition, the remaining activity at 200 µM in [1] turned out to be 5%; in data set [2] it was 29%; in data set [4] it was 1%; in [5], 25%; in data set [7], 1%. Further, the Ki (usually the equilibrium dissociation constant of an inhibitor or competing ligand from its target) came out at 4310 nM in data set [3] and 20 nM in data set [6]. Besides, the “fold improvement in potency against meprin α compared to amine 1 d” value in data set [6] (compared to 1 d) is given as about 400 fold. In addition, the “SF: selectivity factor (K i app meprin β/K i app meprin α)” value (from here on “SF: selectivity factor”) in data set [6] worked out at 216.

Turning to `O=C(CCc1c(-c2ccccc2)noc1-c1ccccc1)NO` [2 d, 3‐(3,5‐Diphenylisoxazol‐4‐yl)propanehydroxamic acid], the viability (usually a read-out of living cells in per cent, often relative to untreated cells) at 24 h, 30 µM worked out at 123% in [8] and 90% in data set [9]. The remaining activity at 10 µM in data set [1] was 79%; in [2], 75%; in data set [4] it was 89%; in data set [5] it was 75%; in data set [7] it was 98%. Moreover, the remaining activity at 200 µM in [1] came to 66%; in data set [2] it was 21%; in data set [4], 39%; in [5] it was 24%; in [7], 74%. Further, the inhibitory constant (Ki) in data set [3] amounted to 13500 nM; in data set [6], 31 nM. In addition, in data set [6], the “SF: selectivity factor” value is 435.

Consider `O=C(Cc1c(-c2ccccc2)n[nH]c1-c1ccccc1)NO` [2 e, 2‐(3,5‐Diphenyl‐1H‐pyrazol‐4‐yl)ethanehydroxamic acid], for which the remaining activity at 10 µM in data set [1] amounted to 75%; in [2] it was 73%; in data set [4], 81%; in data set [5], 61%; in data set [7] it was 104%. Besides, the remaining activity at 200 µM in data set [1] came out at 67%; in data set [2], 23%; in [4] it was 27%; in data set [5], 7%; in [7], 61%. The Ki in data set [10] came to 196 nM; in [3], 199 nM; in data set [6], 3 nM. Further, in data set [10], the “SF Meprin α: selectivity factor (K i app ovastacin/K i app meprin α)” value stood at 65. For the same compound, the “SF Meprin β: selectivity factor (K i app ovastacin/K i app meprin β)” value in data set [10] came out at 1. In addition, the “SF: selectivity factor” value in data set [6] was found to be 66.

On to `O=C(Cn1c(-c2ccccc2)cc2ccccc21)NO` [4 a, 2‐(2‐Phenylindol‐1‐yl)ethanehydroxamic acid], for which the remaining activity at 10 µM in data set [1] was determined as 77%; in [2], 89%; in data set [4], 90%; in data set [5], 88%; in [7], 85%. For the same compound, the remaining activity at 200 µM in data set [1] was determined as 54%; in data set [2], 68%; in data set [4] it was 53%; in data set [5], 56%; in data set [7], 41%. The inhibition constant Ki in [10] is 93 nM; in data set [3] it was 1080 nM; in data set [6], 69 nM. Besides, the “SF Meprin α: selectivity factor (K i app ovastacin/K i app meprin α)” value in data set [10] worked out at 1.3. Moreover, the “SF Meprin β: selectivity factor (K i app ovastacin/K i app meprin β)” value in data set [10] was determined as 0.1. Further, the “SF: selectivity factor” value in data set [6] is 16.
